Read-outs that look alike come from different tables or passages of the source.
Experiments:
[1] = system: male Swiss-Webster mice; test: Antiwrithing (AW) test, acetic acid; format: in vivo; settings: Mus musculus, sc; subcutaneous, 20 minutes before acetic acid i.p.; read-out: ED50, suppression of writhing by 50% relative to vehicle controls
Method: The antiwrithing (AW) test provides preliminary assessment of compounds with potential analgesic activity. The test is performed in male Swiss-Webster mice. Compounds are administered subcutaneously in aqueous 0.2% methylcellulose or other appropriate vehicles in volumes of 10 ml/kg. Dosages represent active moiety.
Acetic acid (0.6%, 10 ml/kg) is injected intraperitoneally 20 minutes after administration of the adenosine agonist. Writhing movements are counted for five minutes starting seven minutes after the acetic acid injection. Writhing is defined as abdominal constriction and stretching of the body and hind legs with concave arching of the back. Data are expressed as ED50 values, where the ED50 is the dose necessary to suppress writhing by 50% relative to vehicle controls. ED50 values are calculated by nonlinear regression analysis.

[2] = biological target: T1, adenosine A1 receptor (Rattus norvegicus, UniProt P25099); test: Adenosine A1 receptor binding (RBA-1), displacement of [3H]-CHA
T1 construct: Whole brain minus cerebellum and brainstem from male Long Evans rats (150-200 g) was homogenized; from tissue; host or cells: rat whole brain minus cerebellum and brainstem, male Long Evans
T1 sequence (P25099 1-326): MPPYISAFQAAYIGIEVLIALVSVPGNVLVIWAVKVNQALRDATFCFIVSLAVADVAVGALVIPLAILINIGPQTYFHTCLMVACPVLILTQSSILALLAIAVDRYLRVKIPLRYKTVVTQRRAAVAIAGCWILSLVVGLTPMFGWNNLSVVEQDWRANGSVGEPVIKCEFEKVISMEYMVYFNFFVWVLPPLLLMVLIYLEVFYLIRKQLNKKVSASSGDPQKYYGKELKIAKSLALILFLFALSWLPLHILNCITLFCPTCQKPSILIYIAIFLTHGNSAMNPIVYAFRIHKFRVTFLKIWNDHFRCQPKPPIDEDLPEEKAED
Method: Whole brain minus cerebellum and brainstem from male Long Evans rats (150-200 g) was homogenized in 30 volumes of ice-cold 0.05M Tris-HCl buffer pH 7.7 using a Brinkman Polytron PT-10, (setting number 6 for 20 seconds) and centrifuged for ten minutes at 20,000×g (Sorvall RC-2), 4° C. The supernatant was discarded, and the pellet was resuspended and centrifuged as before. The pellet was resuspended in 20 ml Tris-HCl buffer containing two International Units/ml of adenosine deaminase (Sigma type III from calf intestinal mucosa), incubated at 37° C. for 30 minutes, then subsequently at 0° C. for ten minutes. The homogenate was again centrifuged, and the final pellet was resuspended in ice-cold 0.05M Tris-HCl buffer pH 7.7 to a concentration of 20 mg/ml original wet tissue weight and used immediately.
Tissue homogenate (10 mg/ml) was incubated in 0.05M Tris-HCl buffer pH 7.7 containing 1.0 nM [^3 H]-N^6 -cyclohexyladenosine [^3 H]-CHA) with or without test agents in triplicate for one hour at 25° C. Incubation volume was 2 ml. Unbound [^3 H]-CHA was separated by rapid filtration under reduced pressure through Whatman glass fiber (GF/B) filters. The filters were rinsed three times with 5 ml of ice cold 0.05M Tris-HCl buffer pH 7.7. The radio-labeled ligand retained on the filter was measured by liquid scintillation spectrophotometry after shaking the filters for one hour or longer on a mechanical shaker in 10 ml of Beckman Ready-Solv HP scintillation cocktail.
Nonspecific binding was defined as the binding which occurred in the presence of 1 mM theophylline. […] The Scatchard plot was calculated by linear regression of the line obtained by plotting the amount of radioligand bound (pmoles/gram of tissue) versus [formula] Since the amount of radioligand bound was a small fraction of the total amount added, free radioligand was defined as the concentration (nM) of radioligand added to the incubation mixture. The Hill coefficient was calculated by linear regression of the line obtained by plotting the log of the bound radioligand vs the log of the [formula] The maximal number of binding sites (Bmax) was calculated from the Scatchard plot.

[3] = 1.0 nM [3H]-CHA, rat whole brain minus cerebellum and brainstem, read-out: RBA-1 (IC50, adenosine A1 receptor affinity)

IC50 [2, 3]	SMILES	ED50 [1]	IC50 [2]
–	OC[C@@H](O)CNc1ncnc2c1ncn2[C@@H]1O[C@H](CO)[C@@H](O)[C@H]1O [Example 3]	–	46 nM
430 nM	CC1(C)OCC(CNc2ncnc3c2ncn3[C@@H]2O[C@H](CO)[C@@H](O)[C@H]2O)O1 (stereo partly drawn) [Example 4, (R,S)-N^6-[2,3Dihydroxypropylisopropylidene]adenosine]	–	–
440 nM	CC1(C)OC[C@@H](CNc2ncnc3c2ncn3[C@@H]2O[C@H](CO)[C@@H](O)[C@H]2O)O1 [Example 5, (R)-N^6-[2,3-Dihydroxypropylisopropylidene]-adenosine]	–	–
34 nM	Nc1nc(NCC(O)CO)c2ncn([C@@H]3O[C@H](CO)[C@@H](O)[C@H]3O)c2n1 (stereo partly drawn) [Example 8]	–	–

SMILES	IC50 [2, 3]	ED50 [1]	IC50 [2]
OCC(O)CNc1ncnc2c1ncn2[C@@H]1O[C@H](CO)[C@@H](O)[C@@H]1O (stereo partly drawn) [Example 1, (R,S)-N^6 [2,3-Dihydroxypropyl]adenosine]	9 nM	0.07 mg/kg	–

Source: patent publication US4616003A, “N^6 -dihydroxypropyladenosines” (Warner-Lambert Company, priority 1985, dated 1986)
